Our source for the IC50 and mean tumor volume values is patent US11945794B2, “Nuclear transport modulators and uses thereof” (Karyopharm Therapeutics Inc., priority 2013, dated 2024).

Usually IC50 stands for the point on the concentration scale where inhibition reaches its midpoint.

Assay [1] has as its system Z138 cells. Kind of assay: MTT cell proliferation assay. The format is cell-based. The conditions noted are these: Homo sapiens, Z-138, approximately 64-72 hours. As to the method: (§1) The MTT cell proliferation assay was used to study the cytotoxic properties of the compounds. The assay was performed according to the method described by Roche Molecular Biochemicals, with minor modifications. The assay is based on the cleavage of the tetrazolium salt, MTT, in the presence of an electron-coupling reagent. The water-insoluble formazan salt produced must be solubilized in an additional step. Cells grown in a 96-well tissue culture plate were incubated with the MTT solution for approximately 4 hours. After this incubation period, a water-insoluble formazan dye formed. After solubilization, the formazan dye was quantitated using a scanning multi-well spectrophotometer (ELISA reader). […] The cells were seeded at 5,000-10,000 cells in each well of 96-well plate in 100 μL of fresh culture medium and were allowed to attach overnight. The stock solutions of the compounds were diluted in 100 μL cell culture medium to obtain eight concentrations of each test compound, ranging from 1 nM to 30 μM. […] All optical densities were measured at 490 nm using a Vmax Kinetic Microplate Reader (Molecular Devices). In most cases, the assay was performed in duplicate and the results were presented as a mean percent inhibition to the negative control±SE. The following formula was used to calculate the percent of inhibition: Inhibition (%)=(1−(ODo/OD))×100.
(§2) The compounds were tested against Z138, MM1S and 3T3 cells. The Z138 cell line is a mature B-cell acute lymphoblastic leukemia cell line derived from a patient with chronic lumphocytic leukemia. The MM1S cell line was established from the peripheral blood of a human multiple myeloma patient. 3T3 cells are standard fibroblast cells; they were originally isolated from Swiss mouse embryo tissue.
For orientation: Tetrazolium assays rely on reduction of a dye to a coloured formazan, in cell work by metabolically active cells.

Assay [2] relates to MM1S cells. Kind of assay: MTT cell proliferation assay. It is filed as cell-based. The conditions noted are these: Homo sapiens, MM1.S, approximately 64-72 hours. Here is the method: as §1, §2
The subject of assay [3] is 3T3 cells. As to the kind of experiment: MTT cell proliferation assay. It is filed as cell-based. As to conditions: Mus musculus, NIH3T3, approximately 64-72 hours. Here is the method: as §1, §2
The target of assay [4] is T1, CRM1 (Homo sapiens, UniProt O14980).
T1 construct: endogenous in cells; host or cells: U2OS cells stably expressing Rev-GFP
T1 sequence (O14980 whole entry): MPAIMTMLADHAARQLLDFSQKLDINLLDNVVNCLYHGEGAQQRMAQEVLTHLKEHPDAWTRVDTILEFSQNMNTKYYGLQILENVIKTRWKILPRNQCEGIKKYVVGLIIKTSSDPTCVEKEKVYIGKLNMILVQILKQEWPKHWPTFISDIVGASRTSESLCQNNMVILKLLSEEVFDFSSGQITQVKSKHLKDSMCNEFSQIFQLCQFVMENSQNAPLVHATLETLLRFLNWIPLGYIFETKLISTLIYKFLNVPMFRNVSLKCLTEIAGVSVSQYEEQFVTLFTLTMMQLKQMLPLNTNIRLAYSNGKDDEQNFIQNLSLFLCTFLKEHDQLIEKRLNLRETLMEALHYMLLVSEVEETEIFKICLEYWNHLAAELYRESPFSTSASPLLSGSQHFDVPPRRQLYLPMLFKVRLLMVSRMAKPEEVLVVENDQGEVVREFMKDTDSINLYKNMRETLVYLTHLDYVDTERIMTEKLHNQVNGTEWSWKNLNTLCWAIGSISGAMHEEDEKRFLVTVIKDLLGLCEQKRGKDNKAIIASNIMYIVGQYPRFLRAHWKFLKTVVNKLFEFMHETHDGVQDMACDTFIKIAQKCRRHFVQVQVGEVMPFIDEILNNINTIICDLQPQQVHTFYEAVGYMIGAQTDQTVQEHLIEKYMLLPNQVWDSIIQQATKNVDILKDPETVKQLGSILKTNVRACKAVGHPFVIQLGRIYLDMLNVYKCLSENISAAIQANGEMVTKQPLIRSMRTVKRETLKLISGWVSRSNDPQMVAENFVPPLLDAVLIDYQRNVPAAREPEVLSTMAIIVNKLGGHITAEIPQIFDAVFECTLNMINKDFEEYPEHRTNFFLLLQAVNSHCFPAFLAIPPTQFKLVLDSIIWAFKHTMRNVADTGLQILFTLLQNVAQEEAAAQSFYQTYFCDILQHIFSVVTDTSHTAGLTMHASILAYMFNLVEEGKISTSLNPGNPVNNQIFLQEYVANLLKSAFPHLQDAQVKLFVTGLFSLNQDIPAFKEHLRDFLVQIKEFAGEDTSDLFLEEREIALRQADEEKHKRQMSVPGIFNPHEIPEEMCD
As to the kind of experiment: Inhibition of nuclear export, RevGFP assay in U2OS-RevGFP cells. As to conditions: approximately 1 hour incubation. It is filed as cell-based. Here is the method: The inhibition of CRM1 mediated nuclear export by compounds of the invention was determined in a RevGFP assay. Rev is a protein from human immunodeficiency virus type 1 (HIV-1) and contains a nuclear export signal (NES) in its C-terminal domain and a nuclear localization signal (NLS) in its N-terminal domain. Nuclear export of Rev protein is dependent on the classical NES/CRM1 pathway (Neville et al, 1997, Kau et al, 2003).
In this assay, U2OS-RevGFP cells were seeded onto clear-bottom, black, 384-well plates the day before the experiment. Compounds were serially diluted 1:2 starting from 40 μM in a separate 384-well plate in DMEM, and then transferred onto cells. Cells were incubated with compound for approximately 1 hour before fixation with 3.7% formaldehyde and nuclei staining with Hoechst 33258. The amount of GFP in cell nuclei was measured and compound IC50s were determined (Kau et al, 2003).

Assay [5] relates to MDA-MB-468 xenograft. Kind of assay: MDA-MB-468 xenograft model. The format is in vivo, mouse. As to conditions: 10 mg/kg PO once daily, CB-17 SCID mice, compared to vehicle. As to the method: MDA-MB-468 (ATCC #HTB-102) breast adenocarcinoma cells were obtained from ATCC. These cells were grown in high glucose DMEM medium supplemented with 10% fetal bovine serum, 1% penicillin and streptomycin, and 2 mM L-Glutamine. Cells were sub-cultured by dilution at a ratio of 1:4. MDA-MB-468 cells were harvested by trypsinization and counted using a hemocytometer. Cells were resuspended in PBS at a concentration of 4×10^8 cells per mL. Cells were placed on ice and mixed with an equal volume of Matrigel (BD Biosciences CB-40234). Twenty-two (22) CB-17 SCID mice were inoculated sub-cutaneously in the left flank with 4×10^7 MDA-MB-468 cells. Treatment was initiated when the tumors reached a mean volume of ˜100 mm^3. […] Animals' weights and condition were recorded daily, and tumors were measured on Mondays, Wednesdays, and Fridays.

Turning to `NC(=O)/C(=C/n1cnc(-c2cc(C(F)(F)F)cc(C(F)(F)F)c2)n1)c1cnc(F)nc1` [Compound 137, (E)-3-(3-(3,5-bis(trifluoromethyl)phenyl)-1H-1,2,4-triazol-1-yl)-2-(2-fluoropyrimidin-5-yl)acrylamide], the IC50 is 100 to 5000 nM in assay [1], less than 100 nM in assay [2], more than 30000 nM in assay [3] and less than 100 nM in assay [4].

Consider `NC(=O)/C(=C/n1cnc(-c2cc(C(F)(F)F)cc(C(F)(F)F)c2)n1)c1cnc(N)nc1` [Compound 136, (E)-2-(2-aminopyrimidin-5-yl)-3-(3-(3,5-bis(trifluoromethyl)phenyl)-1H-1,2,4-triazol-1-yl)acrylamide], for which the IC50 was 100 to 5000 nM in assay [1], less than 100 nM in assay [2], more than 30000 nM in assay [3] and 100 to 5000 nM in assay [4].

For the molecule `NC(=O)/C(=C\n1cnc(-c2cc(C(F)(F)F)cc(C(F)(F)F)c2)n1)c1ccc(Cl)nc1` [Compound 156, (Z)-3-(3-(3,5-bis(trifluoromethyl)phenyl)-1H-1,2,4-triazol-1-yl)-2-(6-chloropyridin-3-yl)acrylamide], the half-inhibitory concentration (IC50) in assay [1] is 100 to 5000 nM; in assay [2], 100 to 5000 nM; in assay [3], more than 30000 nM; in assay [4], 100 to 5000 nM.

For `NC(=O)/C(=C/n1cnc(-c2cc(C(F)(F)F)cc(C(F)(F)F)c2)n1)c1cnc2ccccc2c1` [Compound 149, (E)-3-(3-(3,5-bis(trifluoromethyl)phenyl)-1H-1,2,4-triazol-1-yl)-2-(quinolin-3-yl)acrylamide], the IC50 in assay [1] is less than 100 nM; in assay [2] it was less than 100 nM; in assay [3], more than 30000 nM; in assay [4], less than 100 nM. The mean tumor volume entry in assay [5] is listed as “mean tumor volume was reduced”.

Regarding `NC(=O)/C(=C/n1cnc(-c2cc(C(F)(F)F)cc(C(F)(F)F)c2)n1)c1cncc(Cl)c1` [Compound 141, (E)-3-(3-(3,5-bis(trifluoromethyl)phenyl)-1H-1,2,4-triazol-1-yl)-2-(5-chloropyridin-3-yl)acrylamide], the half-inhibitory concentration (IC50) was 100 to 5000 nM in assay [1], less than 100 nM in assay [2], more than 30000 nM in assay [3] and 100 to 5000 nM in assay [4].

In the case of `NC(=O)/C(=C/n1cnc(-c2cc(C(F)(F)F)cc(C(F)(F)F)c2)n1)c1ccncc1F` [Compound 138, (E)-3-(3-(3,5-bis(trifluoromethyl)phenyl)-1H-1,2,4-triazol-1-yl)-2-(3-fluoropyridin-4-yl)acrylamide], the 50% inhibitory concentration (IC50) in assay [1] is less than 100 nM; in assay [2] it was less than 100 nM; in assay [3] it was 100 to 5000 nM; in assay [4] it was less than 100 nM.

`N#CC(=Cn1cnc(-c2cc(C(F)(F)F)cc(C(F)(F)F)c2)n1)c1ccccn1` [Compound 100, 3-(3-(3,5-bis(trifluoromethyl)phenyl)-1H-1,2,4-triazol-1-yl)-2-(pyridin-2-yl)acrylonitrile]: the IC50 in assay [1], in assay [2], in assay [3] and in assay [4] was more than 30000 nM in each case.

On to `NC(=O)/C(=C/n1cnc(-c2cc(C(F)(F)F)cc(C(F)(F)F)c2)n1)c1ccnc(F)c1` [Compound 140, (E)-3-(3-(3,5-bis(trifluoromethyl)phenyl)-1H-1,2,4-triazol-1-yl)-2-(2-fluoropyridin-4-yl)acrylamide], for which the IC50 in assay [1] was less than 100 nM; in assay [2] it was less than 100 nM; in assay [3], more than 30000 nM; in assay [4] it was less than 100 nM.
